Results reported in patent US20250034169A1, “NOVEL PYRIMIDOPYRIDINE COMPOUND, PHARMACEUTICAL COMPOSITION THEREOF, AND USE THEREOF” (SUNSHINE LAKE PHARMA CO., LTD., priority 2021, published 2025).
Where two headings read alike, the source gives them in different places.

Columns and labels:
KRAS G12D-GTP & cRAF = KRAS G12D-GTP & cRAF (Homo sapiens (Human), UniProt P01116, G12D); assay: KRAS G12D/cRAF binding experiment (HTRF); settings: competitive binding
KRAS G12D-GTP & SOS1 = KRAS G12D-GTP & SOS1 (Homo sapiens (Human), UniProt P01116, G12D); assay: KRAS G12D/SOS1 binding experiment (HTRF); settings: competitive binding
KRAS G12D-GTP & SOS1, sequence (P01116-2 other isoform, or with tags, fused parts or gaps G12D): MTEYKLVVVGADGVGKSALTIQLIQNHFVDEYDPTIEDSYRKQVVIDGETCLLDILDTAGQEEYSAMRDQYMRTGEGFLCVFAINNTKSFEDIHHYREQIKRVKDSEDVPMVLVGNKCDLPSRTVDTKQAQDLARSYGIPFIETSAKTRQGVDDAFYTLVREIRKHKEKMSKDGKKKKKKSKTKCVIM

intracellular pERK = assay: Inhibitory effect on intracellular pERK, In-Cell Western, AGS cells; assay type: cell-based; settings: Homo sapiens, read-out: Inhibitory effect on intracellular pERK, IC50
[1] = Stability in human liver microsomes; assay type: in vitro ADME; settings: 1 μM; for CLHep / predicted in vivo clearance / ER: human liver microsomes; for ER: slow ER < 0.3, moderate 0.3 < ER < 0.7, fast ER > 0.7; for microsomal CLint at 1 μM / half-life at 1 μM: pH 7.4, human liver microsomes 0.5 mg/mL, 37° C.; for microsomal CLint at 1 μM: read-out: CLint; for half-life at 1 μM: read-out: T1/2
Description: (§1) Objective: To evaluate the stability of the compounds of the present invention in human and mouse liver microsomes by LC-MS/MS.
(§2) The ratio of the sample peak area to the internal standard peak area was obtained by LC/MS/MS, and the content of the compounds at 0 min was regarded as 100%, and the relative content of the compounds at each time point was calculated. The half-life of the compound was calculated by plotting the “relative content of the compound” against the “incubation time”, and the intrinsic clearance was calculated, in which the half-life and intrinsic clearance of the compound in human and mouse liver microsomes were determined in Table 3 and Table 4, respectively.

[2] = Stability in mouse liver microsomes; assay type: in vitro ADME; settings: 1 μM; for CLHep / CLin vivo / ER: mouse liver microsomes; for ER: slow ER < 0.3, moderate 0.3 < ER < 0.7, fast ER > 0.7; for microsomal CLint at 1 μM / half-life at 1 μM: pH 7.4, mouse liver microsomes 0.5 mg/mL, 37° C.; for microsomal CLint at 1 μM: read-out: CLint; for half-life at 1 μM: read-out: T1/2
Description: as §1, §2

in vivo = assay: in vivo; design: species or system BALB/c mice; settings: BALB/c, mouse, 2 mg/kg
Description: The inventors performed a pharmacokinetic evaluation of the compounds of the present invention in mice.
The compound of the present invention was in the form of a solution of 5% DMSO+30% PEG400+65% Saline, 10% DMSO+10% Kolliphor HS15+80% Saline, 10% DMSO+89%(25% SBE-B-CD)+(2% HCl), 20% PEG400+80% sterilize water for injection or 10% DMA+10% HS15+30% PEG400+50% sterilize water for injection, the test animals were administered, and the animals were fasted for 12 h before administration, and water was free to drink. The test animals were administered intravenously at a dose of 2 mg/kg, blood (approximately 0.15 mL) was taken intravenously at the following time points after administration: 0.083 h, 0.25 h, 0.5 h, 1.0 h, 2.0 h, 5.0 h, 7.0 h, and 24 h, EDTA-K2 was pre-added as an anticoagulant in the blood collection tube, the blood samples were centrifuged at 12,000 rpm for 2 min, then plasma was collected and stored at −20° C. or −70° C.
The plasma samples collected above were treated (after the frozen plasma thawed at room temperature, vortexed for 15 s for mixing, 10-20 μL of plasma was taken and added with 120-150 μL of acetonitrile solution containing internal standard, the mixture was vortexed for 5 min for mixing, then centrifuged at 4,000 rpm for 5 min, 100 μL of supernatant was taken, and 120-150 μL of methanol/water (v/v=1/1) was added to mix), and the compound concentration in plasma was analyzed by LC-MS/MS. The pharmacokinetic parameters of the compounds of the present invention for intravenous administration in mice are shown in Table 5.

KRAS G12D-GTP & cRAF, sequence (P01116-2 other isoform, or with tags, fused parts or gaps G12D): as above

SMILES | CLHep [1] | predicted in vivo clearance [1] | ER [1] | microsomal CLint at 1 μM [1] | half-life at 1 μM [1] | CLHep [2] | CLin vivo [2] | ER [2] | microsomal CLint at 1 μM [2] | half-life at 1 μM [2] | further results
C#Cc1nc(-c2cc(O)cc3cccc(Cl)c23)c(F)c2nc(OC[C@@]34CCCN3C[C@H](F)C4)nc(N3CC4CCC(C3)N4)c12 [Compound 67] | 0.87 L/h/kg | 0.51 L/h/kg | 0.41 | 11.6 µL/min/mg | 119 min | 10.71 L/h/kg | 3.59 L/h/kg | 0.66 | 45.3 µL/min/mg | 30.6 min | IC50 (KRAS G12D-GTP & cRAF): 5.4 nM; IC50 (KRAS G12D-GTP & SOS1): 13.5 nM; IC50 (intracellular pERK; AGS cells, 3 h incubation, In-Cell Western): 0.4 nM; AUC(0-inf) (in vivo; iv): 3.23 µg·h/mL; AUC(0-t) (in vivo; iv): 3.21 µg·h/mL; Cmax (in vivo; iv): 4.3 µg/mL; MRT last (in vivo; iv): 45 min; Tmax (in vivo; iv): 4.98 min; Vd (in vivo; iv): 0.5 L/kg; clearance (in vivo; iv): 0.6 L/h/kg; half-life (in vivo; iv): 52.2 min
C#Cc1c(F)ccc2cc(O)cc(-c3nc(C#C)c4c(N5CC6CCC(C5)N6)nc(OC[C@@]56CCCN5C[C@H](F)C6)nc4c3F)c12 [Compound 23] | 1.38 L/h/kg | 0.654 L/h/kg | 0.53 | 18.4 µL/min/mg | 75.3 min | 11.24 L/h/kg | 3.65 L/h/kg | 0.68 | 47.6 µL/min/mg | 29.1 min | IC50 (intracellular pERK; AGS, 3 h): 0.6 nM; AUC(0-inf) (in vivo; mice, intravenous, read-out: AUCINF): 2.16 µg·h/mL; AUC(0-t) (in vivo; mice, intravenous, read-out: AUClast): 2.14 µg·h/mL; clearance (in vivo; mice, intravenous, read-out: Cl): 0.96 L/h/kg; Cmax (in vivo; mice, intravenous, read-out: Cmax): 3.55 µg/mL; MRT last (in vivo; mice, intravenous, read-out: MRTlast): 42 min; half-life (in vivo; mice, intravenous, read-out: T1/2 (converted)): 50.4 min; Tmax (in vivo; mice, intravenous, read-out: Tmax): 4.98 min; Vd (in vivo; mice, intravenous, read-out: Vss): 0.69 L/kg
